Data reported in paper PMC9828418 (Angewandte Chemie (International Ed. in English), 2022).
Where two headings read alike, the source gives them in different places.

What was measured:
[1] = Protonation constants of Bi^III complexes by pH-potentiometry; assay type: physicochemical; conditions: 0.15 M NaClO4, 25 °C
[2] = assay type: physicochemical; conditions: 0.15 M NaClO4, 25 °C
[3] = 0.6 M NaClO4, 25 °C; cited from earlier work

Row | logK Bi(HL) (protonation constant of complex) [1] | logK BiL (stability constant) [2] | logK BiL (stability constant) ([2]; listed as A) | logK BiL (stability constant) ([2]; listed as B) | SMILES | logK BiL (stability constant) [3]
1 | 1.63(3) | 26.45 | 26.45(6) |  | CC1(N(CC(=O)[O-])CC(=O)[O-])CN(CC(=O)[O-])CCN(CC(=O)[O-])C1.[Bi+3] [[Bi(AAZTA)]^−] | 
2 | 4.74(4) | 28.75 |  | 28.75(8) | O=C([O-])CCCCC1(N(CC(=O)[O-])CC(=O)[O-])CN(CC(=O)[O-])CCN(CC(=O)[O-])C1.[Bi+3] [[Bi(AAZTA‐C4‐COO^−)]^2−] | 
3 |  |  |  |  | O=C([O-])CN(CCN(CC(=O)[O-])CC(=O)[O-])CCN(CC(=O)[O-])CC(=O)[O-].[Bi+3] [[Bi(DTPA)]^2−] | 29.29
